From patent publication US10975048B2, “Composition of 1,3,4-selenadiazole containing compounds with pharmacological activity” (HANGZHOU JENNIFER BIOTECH CO., LTD, priority 2015, dated 2021)
Like-named read-outs stand apart in the source and are kept apart here. Values belong to the compound of their own block, whether it stands above or below them.

How the values were obtained:
[1] = biological target: GDH (Homo sapiens, UniProt P00367); assay: GDH inhibition IC50; format: biochemical
[2] = biological target: T1, KGA (Homo sapiens, UniProt O94925); assay: KGA inhibition IC50; format: biochemical
T1 sequence (O94925 55-669): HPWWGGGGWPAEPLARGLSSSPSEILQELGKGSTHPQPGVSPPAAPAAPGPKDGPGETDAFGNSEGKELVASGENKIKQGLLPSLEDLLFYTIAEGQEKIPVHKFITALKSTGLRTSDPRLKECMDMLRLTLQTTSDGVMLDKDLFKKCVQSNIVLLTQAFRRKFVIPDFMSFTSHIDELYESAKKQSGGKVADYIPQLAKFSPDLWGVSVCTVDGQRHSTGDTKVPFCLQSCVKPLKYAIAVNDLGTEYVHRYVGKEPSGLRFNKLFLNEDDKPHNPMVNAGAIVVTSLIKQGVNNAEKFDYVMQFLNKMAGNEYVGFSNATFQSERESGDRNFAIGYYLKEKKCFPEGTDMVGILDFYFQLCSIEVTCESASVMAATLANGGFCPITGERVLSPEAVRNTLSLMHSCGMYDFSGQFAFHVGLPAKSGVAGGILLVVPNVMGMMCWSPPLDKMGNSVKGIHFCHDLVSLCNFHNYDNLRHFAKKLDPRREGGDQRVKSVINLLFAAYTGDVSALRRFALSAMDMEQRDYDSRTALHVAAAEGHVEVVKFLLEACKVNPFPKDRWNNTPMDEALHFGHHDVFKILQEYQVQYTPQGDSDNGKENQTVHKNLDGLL
From the text: (§1) The molecular structure of specific compounds is described as follows: […]

[3] = test system: A 549 lung cancer cells; assay: Inhibition of A549 lung cancer cells; format: cell-based; details: for A549 Max-INH: maximal inhibition; for IC50: Homo sapiens
From the text: as §1

[4] = A549 cells, read-out: A549 IC50

Chain of GDH (P00367 54-558): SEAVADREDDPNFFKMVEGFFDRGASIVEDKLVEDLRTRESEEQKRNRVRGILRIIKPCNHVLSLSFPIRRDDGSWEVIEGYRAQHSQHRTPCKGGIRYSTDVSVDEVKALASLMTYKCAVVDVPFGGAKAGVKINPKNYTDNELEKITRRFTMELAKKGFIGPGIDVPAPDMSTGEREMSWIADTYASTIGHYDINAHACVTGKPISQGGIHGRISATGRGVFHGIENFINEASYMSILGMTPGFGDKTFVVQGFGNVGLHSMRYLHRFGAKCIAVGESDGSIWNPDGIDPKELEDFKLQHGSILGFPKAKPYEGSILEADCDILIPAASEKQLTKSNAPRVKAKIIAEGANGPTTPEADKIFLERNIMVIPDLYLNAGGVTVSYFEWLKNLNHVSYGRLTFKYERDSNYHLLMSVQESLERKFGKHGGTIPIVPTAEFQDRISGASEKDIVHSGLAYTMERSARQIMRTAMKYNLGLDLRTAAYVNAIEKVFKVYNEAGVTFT

SMILES: ClCCc1nnc(NCc2ccccc2)[se]1
melting point: 109 to 110 °C

SMILES: Cn1cc(CC(=O)Nc2nnc(CCSCCc3nnc(N)[se]3)[se]2)c2ccccc21
IC50 [1]: > 10000 nM
IC50 [2]: 110 nM
A549 Max-INH ([3]; A549 cells): 84%
IC50 [3, 4]: 2050 nM

SMILES: Cn1cc(CC(=O)Nc2nnc(CCSCCc3nnc(N)s3)s2)c2ccccc21
IC50 [1]: > 10000 nM
IC50 ([2]; read-out: KGA IC50): 140 nM
A549 Max-INH ([3]; A549 cells): 55%
IC50 [3, 4]: 9700 nM

SMILES: Cn1cc(CC(=O)Nc2nnc(CCSCCc3nnc(NC(=O)Cc4cn(C)c5ccccc45)[se]3)[se]2)c2ccccc21
IC50 [1]: > 10000 nM
IC50 ([2]; read-out: KGA IC50): 27 nM
A549 Max-INH ([3]; A549 cells): 90%
IC50 [3, 4]: 160 nM

SMILES: Cn1cc(CC(=O)Nc2nnc(CCSCCc3nnc(NC(=O)Cc4cn(C)c5ccccc45)s3)s2)c2ccccc21
IC50 [1]: > 10000 nM
IC50 ([2]; read-out: KGA IC50): 280 nM
A549 Max-INH ([3]; A549 cells): 80%
IC50 [3, 4]: 820 nM

SMILES: Cn1ccc(CC(=O)Nc2nnc(CCSCCc3nnc(N)[se]3)[se]2)c1
IC50 [1]: > 10000 nM
IC50 [2]: 210 nM
A549 Max-INH ([3]; A549 cells): 40%
IC50 [3, 4]: > 10000 nM

SMILES: Cn1ccc(CC(=O)Nc2nnc(CCSCCc3nnc(N)s3)s2)c1
IC50 [1]: > 10000 nM
IC50 ([2]; read-out: KGA IC50): 570 nM
A549 Max-INH ([3]; A549 cells): 0%
IC50 [3, 4]: > 10000 nM

SMILES: Cn1ccc(CC(=O)Nc2nnc(CCSCCc3nnc(NC(=O)Cc4ccn(C)c4)[se]3)[se]2)c1
IC50 [1]: > 10000 nM
IC50 ([2]; read-out: KGA IC50): 60 nM
A549 Max-INH ([3]; A549 cells): 91%
IC50 [3, 4]: 3100 nM

SMILES: Cn1ccc(CC(=O)Nc2nnc(CCSCCc3nnc(NC(=O)Cc4ccn(C)c4)s3)s2)c1
IC50 [1]: > 10000 nM
IC50 ([2]; read-out: KGA IC50): 130 nM
A549 Max-INH ([3]; A549 cells): 80%
IC50 [3, 4]: 6500 nM

SMILES: Nc1nnc(CCSCCc2nnc(NC(=O)Cc3ccccc3)[se]2)[se]1
IC50 [1]: > 10000 nM
IC50 [2]: 1400 nM
A549 Max-INH ([3]; A549 cells): 62%
IC50 [3, 4]: 6300 nM

SMILES: O=C(Cc1ccccc1)Nc1nnc(CCSCCc2nnc(NC(=O)Cc3ccccc3)[se]2)[se]1
IC50 [1]: > 10000 nM
IC50 ([2]; read-out: KGA IC50): 60 nM
A549 Max-INH ([3]; A549 cells): 66%
IC50 [3, 4]: 300 nM

SMILES: Nc1nnc(CCSCCc2nnc(NC(=O)C34CC5CC(CC(C5)C3)C4)[se]2)[se]1
IC50 [1]: > 10000 nM
IC50 [2]: 4000 nM
A549 Max-INH ([3]; A549 cells): 17%
IC50 [3, 4]: > 10000 nM

SMILES: O=C(Nc1nnc(CCSCCc2nnc(NC(=O)C34CC5CC(CC(C5)C3)C4)[se]2)[se]1)C12CC3CC(CC(C3)C1)C2
IC50 [1]: > 10000 nM
IC50 [2]: 1900 nM
A549 Max-INH ([3]; A549 cells): 17%
IC50 [3, 4]: > 10000 nM

SMILES: O=C(Cc1cccc(OC(F)(F)F)c1)Nc1ccc(CCCCc2nnc(NC(=O)Cc3ccccn3)[se]2)nn1
IC50 [1]: > 10000 nM
IC50 ([2]; read-out: KGA IC50): 1 nM
A549 Max-INH ([3]; A549 cells): 77%
IC50 [3, 4]: 17 nM

SMILES: O=C(Cc1cccc(OC(F)(F)F)c1)Nc1ccc(CCCCc2nnc(NC(=O)Cc3ccccn3)s2)nn1
IC50 [1]: > 10000 nM
A549 Max-INH ([3]; A549 cells): 70%
IC50 ([3]; A549, read-out: A549 IC50): 40 nM

SMILES: Cn1cc(CC(=O)Nc2nnc(CCCCc3ccc(NC(=O)Cc4cccc(OC(F)(F)F)c4)nn3)[se]2)c2ccccc21
IC50 [1]: > 10000 nM
IC50 ([2]; read-out: KGA IC50): 1 nM
A549 Max-INH ([3]; A549 cells): 90%
IC50 [3, 4]: 17 nM

SMILES: COc1ccc2c(c1)c(CC(=O)Nc1nnc(CCCCc3ccc(NC(=O)Cc4cccc(OC(F)(F)F)c4)nn3)[se]1)cn2C
IC50 [1]: > 10000 nM
IC50 ([2]; read-out: KGA IC50): 5 nM
A549 Max-INH ([3]; A549 cells): 90%
IC50 [3, 4]: 10 nM

Second part, led by results:

melting point: 130 to 132 °C
SMILES: c1ccc(Nc2nnc(Cc3nnc(Nc4ccccc4)[se]3)[se]2)cc1

melting point: 160 to 161 °C
SMILES: c1ccc(Nc2nnc(CCc3nnc(Nc4ccccc4)[se]3)[se]2)cc1

melting point: 198 to 201 °C
SMILES: c1ccc(Nc2nnc(CCCc3nnc(Nc4ccccc4)[se]3)[se]2)cc1

melting point: 165 to 171 °C
SMILES: c1ccc(Nc2nnc(CCCCCc3nnc(Nc4ccccc4)[se]3)[se]2)cc1

melting point: 109 to 110 °C
SMILES: ClCCc1nnc(Nc2ccccc2)[se]1

melting point: 109 to 110 °C
SMILES: ClCCc1nnc(NCCc2ccccc2)[se]1

melting point: 109 to 110 °C
SMILES: N=C(N)NCc1nnc(Nc2ccccc2)[se]1

melting point: 172 to 174 °C
SMILES: c1ccc(Nc2nnc(CCSCCc3nnc(Nc4ccccc4)[se]3)[se]2)cc1

IC50 [3, 4]: 870 nM
SMILES: O=C(Cc1ccccc1)Nc1nnc(CCSCCc2nnc(NC(=O)Cc3ccccc3)s2)s1
A549 Max-INH ([3]; A549 cells): 75%
